Assay results published in patent US11076595B2, “1-(n,n-disubstituted carbamoyl) 4-(substituted sulfonyl)triazolin-5-one derivative, 4-(n,n-disubstituted carbamoyl) 1-(substituted sulfonyl)triazolin-5-one derivative, and herbicide containing said derivative as active ingredient” (HOKKO CHEMICAL INDUSTRY CO., LTD., priority 2017, dated 2021).

Key:
Assay type in all cases: in vivo
[1] = test system: Lindernia pyxidaria; assay: Test Example 1: herbicidal effect test by soil treatment in paddy field; conditions: 120 g/10a, paddy soil treatment just after sowing, 14 days after treatment
Outline: (§1)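 Flooded paddy-soil pots (1/10000 are, N:P:K 17:17:17 fertilizer, puddled) were sown with 30 seeds per species at 0–1 cm, water kept ~3 cm in a greenhouse. Emulsifiable concentrate diluted in water was dripped in right after sowing at 120 g a.i. per 10 are. Suppression (%) came from dry weight vs untreated at 14 days.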

[2] = test system: Echinochloa crus-galli; assay: as above; conditions: 120 g/10a, paddy soil treatment just after sowing, 14 days after treatment
Outline: as §1

[3] = test system: Monochoria vaginalis; assay: as above; conditions: 120 g/10a, paddy soil treatment just after sowing, 14 days after treatment
Outline: as §1

[4] = test system: Scirpus juncoides; assay: as above; conditions: 120 g/10a, paddy soil treatment just after sowing, 14 days after treatment
Outline: as §1

[5] = test system: Echinochloa crus-galli; assay: Test Example 3: herbicidal effect test by soil treatment in upland field; conditions: upland field soil treatment 1 day after sowing; 120 g/10a; evaluated 14 days after treatment
Protocol: (§2) This test was performed with two replications per one formulation concentration plot, and 14 days after the formulation treatments, the weed suppression rate (%) was determined according to the following equation (Math. 1). Weed suppression rate (%)=(1−an average dry weight (g) of plants in treated plots/an average dry weight (g) of plants in untreated plots)×100 [Math. 1]
(§3) A pot having a size of 36 cm^2 was filled with field soil (alluvial soil) and after uniformly mixing the soil of the surface layer of 1 cm with 20 grains of each weed seed of crabgrass, Echinochloa crus-galli, Chenopodium album and Amaranthus viridis, the surface layer was pressed lightly. One day after the sowing, an emulsifiable concentrate prepared according to Formulation Example 5 by using the compound shown in Table 7 below was diluted with water, and the water-diluted formulation was sprayed on the soil surface at a ratio of 100 liter per 10 are. The application rate of the active ingredient, by conversion, corresponded to 120 g per 10 are. Fourteen days after the formulation treatment, the herbicidal effect was evaluated by the same criteria as in Test Example 1.

[6] = test system: Amaranthus viridis; assay: as above; conditions: upland field soil treatment 1 day after sowing; 120 g/10a; evaluated 14 days after treatment
Protocol: as §2, §3

[7] = test system: crabgrass; assay: as above; conditions: upland field soil treatment 1 day after sowing; 120 g/10a; evaluated 14 days after treatment
Protocol: as §2, §3

[8] = test system: Chenopodium album; assay: as above; conditions: upland field soil treatment 1 day after sowing; 120 g/10a; evaluated 14 days after treatment
Protocol: as §2, §3

[9] = test system: Echinochloa crus-galli; assay: Test Example 4: herbicidal effect test by foliage treatment in upland field; conditions: upland field foliage treatment 7 days after sowing; 120 g/10a; evaluated 14 days after treatment
Outline: (§4)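 Application of 120 g active ingredient per 10 are, as a water-diluted emulsifiable concentrate sprayed 7 days after sowing into alluvial soil. Effect is expressed as percent dry-weight reduction versus untreated plots at day 14, duplicate plots.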

[10] = test system: Amaranthus viridis; assay: as above; conditions: upland field foliage treatment 7 days after sowing; 120 g/10a; evaluated 14 days after treatment
Outline: as §4

[11] = test system: crabgrass; assay: as above; conditions: upland field foliage treatment 7 days after sowing; 120 g/10a; evaluated 14 days after treatment
Outline: as §4

[12] = test system: Chenopodium album; assay: as above; conditions: upland field foliage treatment 7 days after sowing; 120 g/10a; evaluated 14 days after treatment
Outline: as §4

[13] = test system: Lindernia pyxidaria; assay: Test Example 2: herbicidal effect test by treatment during growing period in paddy field; conditions: treatment 7 days after sowing, 120 g/10a, evaluated 14 days after treatment
Outline: (§5)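 Paddy soil in Wagner pots, flooded to ~3 cm; 30 seeds per species sown 0–1 cm deep, greenhouse-grown. Emulsifiable concentrate diluted in water and dripped into flood water 7 days after sowing at 120 g active ingredient per 10 are. Dry-weight suppression vs untreated assessed 14 days post-treatment, two replicates.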

[14] = test system: Echinochloa crus-galli; assay: as above; conditions: treatment 7 days after sowing, 120 g/10a, evaluated 14 days after treatment
Outline: as §5

[15] = test system: Monochoria vaginalis; assay: as above; conditions: treatment 7 days after sowing, 120 g/10a, evaluated 14 days after treatment
Outline: as §5

[16] = test system: Scirpus juncoides; assay: as above; conditions: treatment 7 days after sowing, 120 g/10a, evaluated 14 days after treatment
Outline: as §5

Structure (SMILES) | weed suppression rate, Lindemia pyxidaria [1] [%] | weed suppression rate, Echinochloa crus-galli [2] [%] | weed suppression rate, Monochoria vaginalis [3] [%] | weed suppression rate, Scirpus juncoides [4] [%] | herbicidal effect (weed suppression rate), Echinochloa crus-galli [5] [%] | herbicidal effect (weed suppression rate), Amaranthus viridis [6] [%] | herbicidal effect (weed suppression rate), Crabgrass [7] [%] | herbicidal effect (weed suppression rate), Chenopodium album [8] [%] | herbicidal effect (weed suppression rate), Echinochloa crus-galli [9] [%] | herbicidal effect (weed suppression rate), Amaranthus viridis [10] [%] | herbicidal effect (weed suppression rate), Crabgrass [11] [%] | herbicidal effect (weed suppression rate), Chenopodium album [12] [%] | weed suppression rate, Lindemia pyxidaria [13] [%] | weed suppression rate, Echinochloa crus-galli [14] [%] | weed suppression rate, Monochoria vaginalis [15] [%] | weed suppression rate, Scirpus juncoides [16] [%]
CC(C)N(C(=O)n1ncn(S(=O)(=O)C2CC2)c1=O)c1ccccc1F [Compound 1-169] | 90 | 100 | 90 | 90 | 80 | 90 | 90 | 80 | 80 | 90 | 90 | 80 | 80 | 100 | 90 | 80
CC(C)N(C(=O)n1ncn(S(=O)(=O)C2CC2)c1=O)c1ccc(F)cc1 [Compound 1-171] | 100 | 100 | 100 | 100 | 100 | 90 | 100 | 100 | 80 | 90 | 90 | 80 | 90 | 100 | 90 | 90
CC(C)N(C(=O)n1ncn(S(=O)(=O)C2CC2)c1=O)c1cccc(F)c1F [Compound 1-198] | 100 | 100 | 100 | 100 | 100 | 100 | 100 | 100 | 100 | 80 | 100 | 80 | 100 | 100 | 100 | 80
CC(C)N(C(=O)n1ncn(S(=O)(=O)C2CC2)c1=O)c1c(F)cccc1F [Compound 1-200] | 100 | 100 | 80 | 100 | 100 | 40 | 100 | 40 | 100 | 80 | 100 | 70 | 80 | 100 | 90 | 100
CC(C)N(C(=O)n1ncn(S(=O)(=O)C2CC2)c1=O)c1ccc(F)c(F)c1F [Compound 1-203] | 100 | 100 | 90 | 100 | 80 | 90 | 80 | 60 | 100 | 100 | 100 | 80 | 80 | 100 | 100 | 100
CC(C)N(C(=O)n1ncn(S(=O)(=O)C2CC2)c1=O)c1ccc(F)cc1Cl [Compound 1-214] | 80 | 90 | 80 | 90 | 80 | 90 | 90 | 80 | 80 | 90 | 90 | 80 | 80 | 90 | 80 | 90
CC(C)N(C(=O)n1ncn(S(=O)(=O)C2CC2)c1=O)c1ccc(Cl)cc1F [Compound 1-215] | 100 | 100 | 100 | 100 | 80 | 80 | 80 | 80 | 90 | 60 | 90 | 60 | 100 | 100 | 100 | 100
CC(C)N(C(=O)n1ncn(S(=O)(=O)C(C)C)c1=O)c1cccnc1F [Compound 1-241] | 90 | 100 | 90 | 80 | 90 | 90 | 90 | 90 | 90 | 50 | 90 | 70 | 90 | 100 | 80 | 80
CC(C)N(C(=O)n1ncn(S(=O)(=O)C2CC2)c1=O)c1ccc(Cl)cn1 [Compound 1-244] | 100 | 100 | 90 | 90 | 80 | 50 | 90 | 40 | 90 | 0 | 90 | 40 | 100 | 100 | 90 | 90
